Activity calls are given as the source filed them. The rule behind the calls is not given here.
Experiments:
[1] = target: STE20/SPS1-related proline-alanine-rich protein kinase (Homo sapiens) (UniProt Q9UEW8); assay: Inhibition of STLK3 Lys2 labeling site in human Huh-7 cells at 1 uM by KiNativ Profiling analysis relative to control; type: cell-based
[2] = target: Serine/threonine-protein kinase 4 (Homo sapiens) (UniProt Q13043); assay: Inhibition of MST1 Lys1 labeling site harbouring ETGQIVAIKQVPVESDLQEIIK in human Huh-7 cells at 1 uM by KiNativ Profiling analysis relative to control
Serine/threonine-protein kinase 4 (Homo sapiens), sequence (Q13043 whole entry, looked up): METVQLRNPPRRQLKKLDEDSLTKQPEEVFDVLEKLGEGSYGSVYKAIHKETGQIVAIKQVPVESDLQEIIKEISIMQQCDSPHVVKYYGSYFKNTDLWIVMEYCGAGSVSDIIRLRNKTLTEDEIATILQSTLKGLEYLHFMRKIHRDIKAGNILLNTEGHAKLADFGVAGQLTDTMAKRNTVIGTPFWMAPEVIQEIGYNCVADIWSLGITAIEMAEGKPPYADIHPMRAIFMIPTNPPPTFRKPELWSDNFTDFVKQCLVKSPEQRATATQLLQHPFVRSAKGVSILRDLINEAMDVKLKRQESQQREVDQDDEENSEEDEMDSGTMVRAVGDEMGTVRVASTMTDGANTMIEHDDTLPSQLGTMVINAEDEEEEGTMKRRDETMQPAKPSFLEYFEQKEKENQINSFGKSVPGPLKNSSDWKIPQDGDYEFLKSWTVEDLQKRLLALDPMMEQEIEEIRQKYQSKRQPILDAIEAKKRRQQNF

[3] = target: T1, Mitogen-activated protein kinase kinase kinase 2 (Homo sapiens) (UniProt Q9Y2U5); assay: Inhibition of MAP3K2 (unknown origin) at 1 uM by Ambit Kinomescan binding assay relative to control; values are per cent of control
T1 sequence (whole entry): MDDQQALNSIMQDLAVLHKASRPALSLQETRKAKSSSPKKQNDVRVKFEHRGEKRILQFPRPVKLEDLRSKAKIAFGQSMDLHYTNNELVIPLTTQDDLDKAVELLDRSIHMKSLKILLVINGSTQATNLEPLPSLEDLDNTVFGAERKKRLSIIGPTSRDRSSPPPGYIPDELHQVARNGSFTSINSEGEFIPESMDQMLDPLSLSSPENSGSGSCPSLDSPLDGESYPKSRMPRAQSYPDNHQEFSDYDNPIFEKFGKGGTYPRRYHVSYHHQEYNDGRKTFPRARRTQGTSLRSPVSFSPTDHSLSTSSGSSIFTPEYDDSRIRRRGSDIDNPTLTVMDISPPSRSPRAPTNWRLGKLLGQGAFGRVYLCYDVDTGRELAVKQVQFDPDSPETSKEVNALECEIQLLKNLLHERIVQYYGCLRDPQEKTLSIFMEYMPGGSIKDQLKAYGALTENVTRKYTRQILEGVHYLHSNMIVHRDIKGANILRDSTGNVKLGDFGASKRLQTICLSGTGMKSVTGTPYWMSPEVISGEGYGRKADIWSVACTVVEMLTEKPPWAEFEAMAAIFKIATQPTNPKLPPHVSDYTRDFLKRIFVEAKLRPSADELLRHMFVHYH

[4] = target: T2, Aurora kinase C (Homo sapiens) (UniProt Q9UQB9); assay: Inhibition of AURKC (unknown origin) at 10 uM by Ambit Kinomescan binding assay
T2 sequence (whole entry): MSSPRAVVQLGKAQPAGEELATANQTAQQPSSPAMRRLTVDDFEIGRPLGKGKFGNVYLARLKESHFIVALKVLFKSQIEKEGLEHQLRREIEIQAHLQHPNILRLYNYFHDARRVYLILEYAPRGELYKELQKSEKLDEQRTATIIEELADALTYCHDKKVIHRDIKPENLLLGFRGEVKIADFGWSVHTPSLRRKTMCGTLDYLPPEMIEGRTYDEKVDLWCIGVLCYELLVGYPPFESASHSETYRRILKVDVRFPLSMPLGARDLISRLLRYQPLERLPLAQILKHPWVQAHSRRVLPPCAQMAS

[5] = target: 5'-AMP-activated protein kinase catalytic subunit alpha-1 (Homo sapiens) (UniProt Q13131); assay: Inhibition of AMPKa1 ATP labeling site in human Huh-7 cells at 10 uM by KiNativ Profiling analysis relative to control; type: cell-based
5'-AMP-activated protein kinase catalytic subunit alpha-1 (Homo sapiens), sequence (Q13131 whole entry, looked up): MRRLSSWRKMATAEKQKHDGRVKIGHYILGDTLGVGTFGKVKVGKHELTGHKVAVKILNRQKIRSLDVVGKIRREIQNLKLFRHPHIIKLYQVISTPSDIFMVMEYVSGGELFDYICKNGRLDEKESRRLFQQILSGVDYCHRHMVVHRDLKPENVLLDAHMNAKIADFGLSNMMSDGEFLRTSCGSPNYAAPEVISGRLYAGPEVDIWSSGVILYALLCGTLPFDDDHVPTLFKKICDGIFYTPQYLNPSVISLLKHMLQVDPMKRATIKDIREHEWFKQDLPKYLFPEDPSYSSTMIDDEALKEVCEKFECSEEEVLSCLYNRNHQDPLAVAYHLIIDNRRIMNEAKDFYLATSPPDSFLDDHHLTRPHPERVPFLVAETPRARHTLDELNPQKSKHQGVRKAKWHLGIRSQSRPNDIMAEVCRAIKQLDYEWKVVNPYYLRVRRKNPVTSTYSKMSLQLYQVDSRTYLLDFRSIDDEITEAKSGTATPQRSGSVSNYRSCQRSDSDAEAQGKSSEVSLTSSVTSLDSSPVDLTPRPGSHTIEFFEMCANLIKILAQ

[6] = target: T3, Serine/threonine-protein kinase Nek1 (Homo sapiens) (UniProt Q96PY6); assay: Inhibition of NEK1 K2 labeling site in human Huh-7 cells at 1 uM by KiNativ Profiling analysis relative to control; type: cell-based
T3 sequence (whole entry): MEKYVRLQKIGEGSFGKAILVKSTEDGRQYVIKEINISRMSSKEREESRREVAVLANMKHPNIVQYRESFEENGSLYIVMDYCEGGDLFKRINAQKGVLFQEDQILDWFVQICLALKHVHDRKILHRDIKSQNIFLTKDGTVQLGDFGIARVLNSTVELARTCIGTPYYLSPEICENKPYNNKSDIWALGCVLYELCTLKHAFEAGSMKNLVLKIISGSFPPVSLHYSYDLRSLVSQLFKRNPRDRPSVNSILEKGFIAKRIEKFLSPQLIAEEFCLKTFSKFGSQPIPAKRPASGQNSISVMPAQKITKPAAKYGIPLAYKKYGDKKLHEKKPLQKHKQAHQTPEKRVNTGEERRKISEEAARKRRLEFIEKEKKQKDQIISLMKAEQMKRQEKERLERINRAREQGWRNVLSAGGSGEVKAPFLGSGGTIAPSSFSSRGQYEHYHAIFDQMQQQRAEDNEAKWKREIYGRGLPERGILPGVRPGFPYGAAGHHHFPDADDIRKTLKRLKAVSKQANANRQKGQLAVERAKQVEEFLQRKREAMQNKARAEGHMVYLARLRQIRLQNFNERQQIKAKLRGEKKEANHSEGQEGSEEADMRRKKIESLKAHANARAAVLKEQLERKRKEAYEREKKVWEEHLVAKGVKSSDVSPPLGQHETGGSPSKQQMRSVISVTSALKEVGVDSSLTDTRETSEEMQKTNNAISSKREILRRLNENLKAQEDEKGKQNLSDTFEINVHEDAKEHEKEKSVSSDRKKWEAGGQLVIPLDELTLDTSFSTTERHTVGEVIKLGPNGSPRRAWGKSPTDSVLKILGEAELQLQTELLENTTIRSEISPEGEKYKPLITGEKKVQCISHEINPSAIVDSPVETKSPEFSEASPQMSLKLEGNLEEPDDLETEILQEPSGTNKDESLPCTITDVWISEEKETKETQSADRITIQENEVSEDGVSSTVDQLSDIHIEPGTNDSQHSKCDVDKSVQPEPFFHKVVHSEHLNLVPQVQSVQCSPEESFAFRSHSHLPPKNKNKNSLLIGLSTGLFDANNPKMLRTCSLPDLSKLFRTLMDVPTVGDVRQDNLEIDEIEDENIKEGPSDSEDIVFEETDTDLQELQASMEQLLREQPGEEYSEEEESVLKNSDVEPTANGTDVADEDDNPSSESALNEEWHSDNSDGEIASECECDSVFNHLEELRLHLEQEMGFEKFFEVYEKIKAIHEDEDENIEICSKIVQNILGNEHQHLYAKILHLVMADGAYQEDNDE

For `CNc1cc(Oc2cc(C(=O)Nc3cc(N4CCN(C)CC4)cc(C(F)(F)F)c3)ccc2C)ncn1`, the inhibition [1] was 57.3% and the inhibition [2] was 8.9%.

`CCN1CCN(Cc2ccc(NC(=O)c3ccc(C)c(/C=C/c4cnc5[nH]ccc5c4OC)c3)cc2C(F)(F)F)CC1` gave a residual activity [3] of 23%.

`CCN1CCN(Cc2ccc(NC(=O)c3ccc(C)c(Oc4ccnc5[nH]ccc45)c3)cc2C(F)(F)F)CC1` was tested, and the inhibition [4] was “inactive”, the inhibition [5] was 14% and the inhibition [6] was -5.8%.
